Test results from ChEMBL document CHEMBL5532635, “The role of natural anti-parasitic guided development of synthetic drugs for leishmaniasis” (Eur J Med Chem, 2023).
Converted amounts (≈) assume the structure as drawn.

How the values were obtained:
Format in all cases: functional, organism-based
Leishmania major [1] = test: Antileishmanial activity against Leishmania major amastigotes assessed as reduction in parasite growth incubated for 72 hrs by MTT assay
Leishmania major [2] = test: Antileishmanial activity against Leishmania major promastigotes assessed as reduction in parasite growth incubated for 72 hrs by MTT assay
Leishmania amazonensis [3] = test: Antileishmanial activity against Leishmania amazonensis promastigotes infected in BALB/c mouse assessed as reduction of IgG1 level at 400 mg/kg per day, ip administered for 30 days measured at 10 week by ELISA assay
Leishmania amazonensis [4] = test: Antileishmanial activity against Leishmania amazonensis promastigotes assessed as reduction in parasite viability after 72 hrs by CCK-8 assay
Leishmania donovani [5] = test: Antileishmanial activity against Leishmania donovani promastigotes assessed as reduction in parasite growth
Leishmania amazonensis [6] = test: Antileishmanial activity against Leishmania amazonensis amastigotes assessed as reduction in parasite growth
Leishmania infantum [7] = test: Antileishmanial activity Leishmania infantum promastigotes assessed as reduction in parasite growth incubated for 72 hrs by alamar blue assay
Leishmania infantum [8] = test: Antileishmanial activity against Leishmania infantum assessed as reduction in parasite growth
Leishmania infantum [9] = test: Antileishmanial activity against Leishmania infantum promastigotes assessed as reduction in parasite viability measured after 48 hrs by MTT assay
Leishmania mexicana = test: Antileishmanial activity against Leishmania mexicana intracellular amastigotes infected in J774 macrophages assessed as reduction in parasite viability after 72 hrs by MTT based analysis; conditions: J774, 72 h
Leishmania donovani [10] = test: Antileishmanial activity against Leishmania donovani promastigotes assessed as inhibition of parasite growth incubated for 4 hrs by MTT assay
Leishmania infantum [11] = test: Antileishmanial activity against Leishmania infantum promastigote assessed as reduction in parasite growth after 72 hrs by MTT assay
Leishmania tropica = test: Antileishmanial activity against Leishmania tropica promastigotes assessed as inhibition of parasite growth
Leishmania donovani [12] = test: Antileishmanial activity against Leishmania donovani BHU575 promastigotes assessed as cell viability by MTT assay

For COc1c2c(cc3c1-c1ccc(OC)c(=O)cc1[C@@H](NC(C)=O)CC3)OCO2, the IC50 (Leishmania major [1]) was 8.7 µg/mL (≈ 22.7 µM) and the IC50 (Leishmania major [2]) was 0.4 µg/mL (≈ 1.04 µM).

In the case of CC[C@H]1CN2CCc3c([nH]c4ccccc34)[C@@H]2C[C@@H]1/C(=C\OC)C(=O)OC, the IC50 (Leishmania amazonensis [3]) is reported as 1.65 µM.

For C=C[C@H]1CN2CCc3c([nH]c4ccccc34)[C@@H]2C[C@@H]1/C(=C\OC)C(=O)OC, the IC50 (Leishmania amazonensis [3]) was 1.12 µM.

For CO[C@@H]1C(=O)C[C@H]2O[C@]1(C)n1c3ccccc3c3c4c(c5c6ccccc6n2c5c31)C(=O)NC4, the IC50 (Leishmania amazonensis [4]) was 0.037 µM, the IC50 (Leishmania donovani [5]) was greater than 0.089 µM and the IC50 (Leishmania amazonensis [6]) was 0.005 µM.

C/C(=C\COc1cc(O)cc2oc(=O)ccc12)C/C=C/C(C)(C)OO gave an EC50 (Leishmania infantum [7]) of 20.2 µM.

Cc1cc(O)c(C(=O)Nc2ccccc2)c(=O)n1Cc1ccc(Cl)cc1 showed an IC50 (Leishmania infantum [8]) of 55 µM.

Cc1cc(O)c(C(=O)Nc2ccccc2)c(=O)n1Cc1ccc(F)cc1 was tested, and the IC50 (Leishmania infantum [8]) was 55 µM.

CCCn1c(C)cc(O)c(C(=O)Nc2ccc(Br)cc2)c1=O gave an IC50 (Leishmania infantum [8]) of 55 µM.

COc1c(O[C@@H]2O[C@H](CO)[C@@H](O)[C@H](O)[C@H]2O)cc2c(c1OC)-c1ccc(OC)c(=O)cc1[C@@H](NC(C)=O)CC2 gave an IC50 (Leishmania major [1]) of 4 µg/mL (≈ 7.31 µM) and an IC50 (Leishmania major [2]) of 0.2 µg/mL (≈ 0.365 µM).

Cc1cc(O)c(C(=O)Nc2ccc(Br)cc2)c(=O)n1C1CC1 showed an IC50 (Leishmania infantum [8]) of 55 µM.

Cc1cc(O)c(C(=O)Nc2ccccc2)c(=O)n1Cc1cccc(Cl)c1Cl was tested, and the IC50 (Leishmania infantum [8]) was 55 µM.

For COC1=C(C)O[C@H]2C[C@@]1(OC)n1c3ccccc3c3c4c(c5c6ccccc6n2c5c31)C(=O)NC4, the IC50 (Leishmania amazonensis [4]) was 0.0224 µM and the IC50 (Leishmania donovani [5]) was greater than 0.089 µM.

CCOC(=O)c1cc2c([nH]c3ccccc32)c(-c2ccccn2)n1 gave an EC50 (Leishmania infantum [9]) of 3.36 µM.

CCOC(=O)c1cc2c([nH]c3ccccc32)c(-c2cn(-c3ccccc3)nn2)n1 showed an EC50 (Leishmania infantum [9]) of 13.6 µM.

COc1cc2oc(=O)ccc2c(OC/C=C(\C)C/C=C/C(C)(C)OO)c1OC was tested, and the EC50 (Leishmania infantum [7]) was 26.2 µM.

For COc1cc(/C=C/C(=O)c2ccc([N+](=O)[O-])cc2)ccc1OCC=C(C)C, the IC50 (Leishmania mexicana) was 8.22 µM.

Compound CCOC(=O)c1cc2c([nH]c3ccccc32)c(-c2cc3ccccc3n3nnnc23)n1 has an EC50 (Leishmania infantum [9]) of 10.2 µM.

O=c1c2ccccc2nc(/C=C/c2ccc([N+](=O)[O-])cc2)n1-c1ccccc1 showed an IC50 (Leishmania donovani [10]) of 0.021 µM.

COc1ccc(Cn2c(C)cc(O)c(C(=O)Nc3ccc(C)cc3)c2=O)cc1 gave an IC50 (Leishmania infantum [8]) of 55 µM.

Work on C=C[C@@H](c1cc(CC=C(C)C)ccc1O)c1cc(CC=C(C)C)c(OC)cc1O yielded an IC50 (Leishmania amazonensis [4]) of 4.5 µM, an IC50 (Leishmania infantum [11]) of 5.2 µM and an IC50 (Leishmania amazonensis [6]) of 1.13 µM.

Compound COc1cc(/C=C/C(=O)c2cccc([N+](=O)[O-])c2)ccc1OCC=C(C)C has an IC50 (Leishmania mexicana) of 4.57 µM.

Work on COc1cc2c(c(OC)c1OC)-c1ccc(OC)c(=O)cc1[C@@H](NC=O)CC2 yielded an IC50 (Leishmania major [1]) of 10.2 µg/mL (≈ 26.5 µM).

COc1cc2c(c(OC)c1O)-c1ccc(OC)c(=O)cc1[C@@H](NC(C)=O)CC2 [2-DESMETHYLCOLCHICIN] showed an IC50 (Leishmania major [1]) of 10.2 µg/mL (≈ 26.5 µM) and an IC50 (Leishmania major [2]) of 0.5 µg/mL (≈ 1.3 µM).

Compound C[C@@H]1[C@H](O)[C@@H](C)/C=C/C=C/C=C/C=C/C=C/C=C/C=C/[C@H](O[C@@H]2O[C@H](C)[C@@H](O)[C@H](N)[C@@H]2O)C[C@@H]2O[C@](O)(C[C@@H](O)C[C@@H](O)[C@H](O)CC[C@@H](O)C[C@@H](O)CC(=O)O[C@H]1C)C[C@H](O)[C@H]2C(=O)O [AMPHOTERICIN B] has an IC50 (Leishmania donovani [10]) of 0.046 µM.

CC1=CCC[C@H]2[C@](C)(CC3=CC(=O)C=CC3=O)[C@@H](C)CC[C@]12C [AVARONE] showed an IC50 (Leishmania tropica) of 20.3 µM and an IC50 (Leishmania donovani [12]) of 28.2 µM.

With COc1cc2c(c(OC)c1OC)-c1ccc(OC)c(=O)cc1[C@@H](NC(C)=O)CC2 [COLCHICINE] the IC50 (Leishmania major [1]) was 10.2 µg/mL (≈ 25.5 µM) and the IC50 (Leishmania major [2]) was 0.5 µg/mL (≈ 1.25 µM).

In the case of COc1cc2c(c(OC)c1OC)-c1ccc(OC)c(=O)cc1[C@@H](NC(=O)CO)CC2 [COLCHIFOLINE], the IC50 (Leishmania major [1]) is reported as 14 µg/mL (≈ 33.7 µM) and the IC50 (Leishmania major [2]) is reported as 0.7 µg/mL (≈ 1.68 µM).

CC[C@@H]1CN2CCc3c([nH]c4ccccc34)[C@@H]2C[C@@H]1/C(=C\OC)C(=O)OC [CORYNANRHEIDINE] showed an IC50 (Leishmania amazonensis [3]) of 2.81 µM.

In the case of CN[C@H]1CCc2cc(OC)c(OC)c(OC)c2-c2ccc(OC)c(=O)cc21 [DEMECOLCINE], the IC50 (Leishmania major [1]) is reported as 14.8 µg/mL (≈ 39.8 µM) and the IC50 (Leishmania major [2]) is reported as 0.7 µg/mL (≈ 1.88 µM).

Compound CCCCCCCCCCCCCCCCOP(=O)([O-])OCC[N+](C)(C)C [MILTEFOSINE] has an IC50 (Leishmania donovani [10]) of 3.19 µM.

For COc1cc2ccc(=O)oc2cc1OC [SCOPARONE], the EC50 (Leishmania infantum [7]) was 5.2 µM.
